Columns and labels:
[1] = test system: NO production in CB-SC; experiment: Real time assay for NO production in CB-SC; type: cell-based, human
[2] = test system: CD4+CD25+CD62L+CD69+ Tregs; experiment: Co-culture of PHA-stimulated lymphocytes with CB-SC in presence of CPM inhibitor and B1R antagonist; type: cell-based, human; conditions: MGTA 10 μM, DALKD 2 μM
Source text: To examine the cell-cell contacting effects and CPM and B1R contribution to immune modulation of CB-SC on human Tregs, we performed co-culture experiments in the presence of CPM specific inhibitor MGTA and B1R specific inhibitor DALKD. Lymphocytes plated in trans-wells served as controls. […] Data are representative of five experiments.

[3] = test system: nitric oxide synthase; experiment: Blocking of the inhibitory effect of stem cells on lymphocytes with nitric oxide synthase inhibitor; type: cell-based
[4] = test system: DNA methyltransferase (DNMT) activity of lymphocytes; experiment: Regulation of DNA methyltransferase activity of lymphocytes by CB-SC-derived NO; type: cell-based
[5] = test system: allogeneic lymphocytes; experiment: Suppression of CB-SC on allogeneic lymphocytes in presence of inhibitors; type: cell-based, human
[6] = in combination with B1R activator DAKD

Compound: des-Arg 10-bradykinin (KRPPGFSPF) [DAKD]
- NO production in CB-SC ([1]; agent alone): increased

Compound: [Des-Arg10, Leu9] kallidin [DALKD]
- positive percentage of CD4+CD25+CD62L+CD69+ Tregs [2]: decrease
- NO production in CB-SC [1, 6]: inhibited

Compound: NC(=NCCC[C@H](N)C(=O)O)N[N+](=O)[O-] [L-NNA, N-omega-nitro-L-arginine]
- inhibitory effect of stem cells mediated by nitric oxide (NO) [3]: blocking

Compound: CC(=N)NCc1cccc(CN)c1 [1400 W]
- epigenetic regulation on DNMT activity of lymphocytes by CB-SC-derived NO [4]: significantly blocked
- NO production in CB-SC [1, 6]: inhibited
- suppression of CB-SC on allogeneic lymphocytes [5]: reverse the suppression
